Key:
[1] = tested on: IL-6, IL-19, G-CSF, S100AB, and NAP-2; assay: ELISA of cytokine proteins in culture supernatant of M5-treated primary human keratinocytes (psoriasis cell culture model); type: cell-based; conditions: of five gene products (IL-6, IL-19, G-CSF, S100AB, NAP-2), primary human keratinocytes + M5, 24 hours, diacerein 10 μM, infliximab 5 μg/ml
Procedure: Experiments were carried out to investigate the effect of combined anti-TNF-α (infliximab) and diacerein, an inhibitor for a pro-inflammatory cytokine interleukin-1, utilizing an in vivo-equivalent psoriasis cell culture system. This in vivo-equivalent model is generated by using a group of 5 different natural chemicals (M5: IL-17A, IL-22, Oncostatin-M, IL-1α, and TNF-α) on human epidermal cells keratinocytes, recapitulating the in vivo immune dysregulation as identified in vivo in the skin lesions of patients affected by psoriasis (Guilloteau et al., Skin Inflammation Induced by the Synergistic Action of IL-17A, IL-22, Oncostatin M, IL-1α, and TNF-α Recapitulates Some Features of Psoriasis. Journal of Immunology 2010; 184:5263-70). […]
After 24 hours of incubation, the culture media (supernatant) of the above 5 groups were collected and stored at −20° C. for ELISA experiments as the following: 50-100 μl of cell culture supernatant were assayed with commercially available ELISA kits for human cytokines according to the manufacturers' instructions (IL-6, IL-19, G-CSF, S100AB, and NAP-2). The data we collected determined that infliximab alone (group 3), diacerein alone (group 4), and combined infliximab and diacerein (group 5) partially or completely reverse the dysregulation effect of the 5 natural chemicals (M5) in five, three, and five genes, respectively. […]

[2] = tested on: pro-inflammatory genes regulated by M5; assay: Inflammatory Response and Autoimmune PCR Array on RNA of M5-treated primary human keratinocytes; type: cell-based; conditions: diacerein 10 μM, infliximab 5 μg/ml; for number of genes in which the greatest effect was seen: of 48 genes partially or fully reversed by all three groups, keratinocytes + M5, 24 hours; for number of genes on which the effect of the five cytokines was partially or fully reversed: of 81 pro-inflammatory genes significantly (p<0.05) regulated at least 2-fold by M5, keratinocytes, 24 hours
Procedure: Experiments were carried out to investigate the effect of combined anti-TNF-α (infliximab) and diacerein, an inhibitor for a pro-inflammatory cytokine interleukin-1, utilizing an in vivo-equivalent psoriasis cell culture system. This in vivo-equivalent model is generated by using a group of 5 different natural chemicals (M5: IL-17A, IL-22, Oncostatin-M, IL-1α, and TNF-α) on human epidermal cells keratinocytes, recapitulating the in vivo immune dysregulation as identified in vivo in the skin lesions of patients affected by psoriasis (Guilloteau et al., Skin Inflammation Induced by the Synergistic Action of IL-17A, IL-22, Oncostatin M, IL-1α, and TNF-α Recapitulates Some Features of Psoriasis. Journal of Immunology 2010; 184:5263-70). Thus, this in vivo-equivalent model provides an excellent tool for the investigation of the combined effect of anti-TNF-α and diacerein on psoriasis.
The experiments were carried out in the following manner: Primary human keratinocytes (purchased from Invitrogen, Carlsbad, Calif.) Epilife culture medium supplemented with human keratinocyte growth supplement (Invitrogen) in standard humidified chamber (37° C., 5% CO2). When the cells reached 80% confluency, cells were divided into 5 groups for treatment: • 1). Cell culture medium alone, serving as a negative control • 2). Cell culture medium plus 5 natural chemicals (M5) • 3). Cell culture medium plus 5 natural chemicals (M5) and anti-TNF-alpha (infliximab) • 4). Cell culture medium plus 5 natural chemicals (M5) and diacerein • 5). Cell culture medium plus 5 natural chemicals (M5), anti-TNF-alpha (infliximab) and diacerein.
The above 5 groups were incubated at 37° C. for 24 hours.
The concentrations and commercial sources of the experiment components are: • IL-17 alpha (10 ng/ml, Life Technologies, Frederick, Md.) • IL-22 (10 ng/ml. Life Technologies, Frederick, Md.) • Oncostatin-M (10 ng/ml, Life Technologies, Frederick, Md.) • IL-1 alpha (10 ng/ml, Life Technologies, Frederick, Md.) • TNF-alpha ([…], Life Technologies, Frederick, Md.) • Diacerein (10 μM, Sigma Aldrich, Saint Louis, Md.) • Infliximab (Remicade®, an anti-TNF-alpha, 5 μg/ml, Jansen Biotech, Horsham, Pa.)
After 24 hours of incubation, the cultured cells were washed three times with sterile PBS (phosphate-buffered saline) and the RNAs were harvested with Trizol (Invitrogen) and the purity (A260/A280 ratio>1.8) was confirmed. Reverse transcription was performed with 1 micro gram RNA using first strand kit from Invitrogen according to manufacturer's instruction. 10 μl of mastermix (Qiagen, Valencia, Calif.) with the reversely transcribed cDNA were amplified using a real-time PCR machine (ViiA7 PCR, Applied Biosystems, Waltham, Pa.). Statistical analysis was performed with web-based Software. […]

| Compound | number of genes in which the dysregulation effect of the 5 natural chemicals (M5) is partially or completely reversed [1] | number of genes in which the greatest effect was seen [2] [genes] | number of genes on which the effect of the five cytokines was partially or fully reversed [2] [genes] |
| --- | --- | --- | --- |
| CC(=O)Oc1cccc2c1C(=O)c1c(OC(C)=O)cc(C(=O)O)cc1C2=O [diacerein] | three | 17 | 61 |
| infliximab | five | 10 | 67 |

Reference: patent publication US20180311199A1, “COMBINATION TREATMENT FOR INFLAMMATORY DISEASES” (priority 2016, published 2018)
